Experiment [1] has as its system TNBS-induced colonic damage. In kind it is in vivo, Male Wistar rats. The method, then: In this Example, the effects of DHEA were evaluated in the TNBS model (see, e.g., Boughton-Smith et al., 1988; Morris et al., 1989; Reuter et al., 1996) at a defined oral dose administered twice a day by gavage, using a low intracolonic concentration of TNBS (10 mg). This challenge dose of TNBS is known to generate reproducible yet not unduly severe mucosal injury in the colon, as determined 3 days after instillation. In this current investigation, colonic macroscopic injury has been assessed. In addition to DHEA, the effect of a single daily low oral dose of dexamethasone, which has a broad profile of anti-inflammatory actions, was also evaluated in this model.
Male Wistar rats (220-300 g) were randomised into groups before commencement of the study. On day 0, the rats were transiently anaesthetised with ether and TNBS (10 mg in 0.25 ml of 50% ethanol) was instilled into the colon using a soft plastic catheter inserted in the rat rectum. The rats were allowed to recover with free access to food and drinking water. At the end of the Experiment, 72 h after TNBS administration (i.e. on the morning of day 3), the distal colon was dissected, photographed and stored appropriately for subsequent analyses. Macroscopic scoring of distal 8 cm of colon was measured as the primary efficacy parameter. In addition, the weight of the colonic segment was assessed as an indirect and non-specific marker of oedema, and the body weight of the animals was determined each day of the study.
The groups (n=8-12) for study with TNBS challenge were: (a) saline control administered in 0.5 ml p.o. per rat, b.i.d; (b) DHEA (50 mg per rat, b.i.d); (c) dexamethasone (0.3 mg/kg, oral, once daily); (d) control non-challenged with TNBS and non-drug-treated (received only salineb.i.d.). The DHEA was administered orally, twice daily for 48 h before TNBS administration, on Day 0 with TNBS administration and on Day 1 and 2. The DHEA was administered as a solid bicarbonate composite providing high bioavailability. Tissues were removed 72 h after TNBS administration (Day 3). Saline treated animals on the final day were 95.6+/−1.7% of mean starting body weight. Similarly, DHEA-treated animals were 95.4+/−1.1% of their mean starting body weight. Weight loss in the Dexamethasone treatment group was significant at 84.5+/−1.3% of starting weight.

The next experiment has as its system oral mucositis. The experiment can be described thus: Acute radiation model of oral mucositis in hamsters. It is filed as in vivo, Male Golden Syrian hamsters. The following applies: day -1 to day 27; for weight change following irradiation: 40 Gy on day 0, DHEA-cyclodextrin complex; for daily mucositis scores vs saline control: score scale 0-5. An excerpt:
The acute radiation model in hamsters (see, e.g., Sonis et al., 2000) has proven to be an accurate, efficient and cost-effective technique to provide a preliminary evaluation of anti-mucositis compounds. The course of mucositis in this model is well defined and results in peak ulceration scores approximately 14-16 days following radiation. The acute model has been used to study specific mechanistic elements in the pathogenesis of mucositis. Molecules that show efficacy in the acute radiation model may be further evaluated in the more complex models of fractionated radiation, chemotherapy, or concomitant therapy. In this example, an acute radiation dose of 40 Gy on day 0 was administered and clinically significant mucositis was observed around day 14.
Animals. Male Golden Syrian hamsters were randomly and prospectively divided into six (6) treatment groups prior to irradiation as follows:
Hamsters were given an acute radiation dose directed to their oral mucosa. Test materials were applied by injection (once per day) or by oral dosing (either once or twice per day. Oral administrations were done using feeding needles. Dosing began the day before radiation (day −1) and continued until day 27. The test material utilized was an Inflabloc® pharmaceutical preparation, which, for the present example, comprised a complex of DHEA and cyclodextrin.
Starting on Day 6 and continuing every second day thereafter (days 8, 10, 12, 14, 16, 18, 20, 22, 24, 26, & 28), each animal was evaluated for mucositis scoring.
Mucositis Scoring. Parameters measured were the mucositis score, weight change and survival. For the evaluation of mucositis, the animals were anesthetized with inhalation anesthetics, and the left pouch everted. Mucositis was scored visually by comparison to a validated photographic scale, ranging from 0 for normal, to 5 for severe ulceration (clinical scoring).
A score of 1-2 is considered to represent a mild stage of the disease, whereas a score of 3-5 is considered to indicate moderate to severe mucositis. Following visual scoring, a photograph was taken of each animal's mucosa using a standardized technique. At the conclusion of the experiment, all film was developed and the photographs randomly numbered. At least two independent trained observers graded the photographs in blinded fashion using the above-described scale (blinded scoring).
The effect on mucositis of each drug treatment compared to placebo was assessed according to these parameters: the difference in the number of days hamsters in each group have severe (score 3) mucositis and the rank sum differences in daily mucositis scores. On each evaluation day, the number of animals with a blinded mucositis score of 3 in each drug treatment group, was compared to the control group. Differences were analyzed on a cumulative basis. For each evaluation day the scores of the control group were compared to those of the placebo group and vehicle group.
Mucositis Induction. Mucositis was induced using a standardized acute radiation protocol using a single dose of radiation (40 Gy/dose) on Day 0.

“And” between values parts separate entries of the source, which are not always exact repeats. Equal entries are not always repeated.

Two compounds from patent US20040121991A1, “Dehydroepiandrosterone (DHEA) congeners for prevention and/or treatment of ulcers” (priority 2002, published 2004) can be followed below.

As to `C[C@@H]1C[C@H]2[C@@H]3CCC4=CC(=O)C=C[C@]4(C)[C@@]3(F)[C@@H](O)C[C@]2(C)[C@@]1(O)C(=O)CO` [dexamethasone], the “area of colonic injury, % of the mucosal area” value in experiment [1] (dexamethasone 0.3 mg/kg once a day oral, 72 h after TNBS challenge, n=8, TNBS control 48±2%) worked out at 41±5%.
With `C[C@]12CC[C@H](O)CC1=CC[C@@H]1[C@@H]2CC[C@]2(C)C(=O)CC[C@@H]12` [DHEA, (3β)-3-hydroxyandrost-5-en-17-one], the “weight change following irradiation” value is on record as “weight gain patterns that closely corresponded to those observed in the control group” with oral mucositis (25 mg/kg/day ip), “weight gain patterns that closely corresponded to those observed in the control group” in the experiment on oral mucositis (50 mg/kg/day ip), “no pattern of weight loss” in the experiment on oral mucositis (250 mg/kg/day p.o.) and “no pattern of weight loss” in the experiment with oral mucositis (500 mg/kg/day p.o.). Moreover, the “daily mucositis scores vs saline control” value in the experiment on oral mucositis (50 mg/kg i.p.) and with oral mucositis (500 mg/kg/day oral) was “significantly lower than those in the saline control group” in each case. Moreover, in experiment [1] (DHEA 50 mg per rat b.i.d. oral, solid bicarbonate composite, TNBS 10 mg, day 3), the “body weight on the final day, % of mean starting body weight” value was 95.4+/−1.1%. The “area of colonic injury, % of total colonic area of the segment” value in experiment [1] (DHEA 50 mg per rat b.i.d. oral, 72 h after TNBS challenge, TNBS control 48±2%) was 31+/−3%. For the same compound, the “reduction in the area of colonic injury” value in experiment [1] (DHEA 50 mg per rat b.i.d. oral, vs TNBS control, P<0.001) was 40% and ~40%. In addition, in experiment [1] (DHEA 50 mg per rat b.i.d. oral, vs saline + TNBS, end of study), the “colon weight of the standard segment (index of inflammatory oedema)” value is given as “significantly (P<0.001) reduced”.
